Assay results taken from patent publication EP0174371B1, “TRIPHENYLMETHANE DERIVATIVES AND METHOD FOR DETERMINING OXIDATIVE SUBSTANCES USING THEM AS COLOR-FORMING COMPONENT” (WAKO PURE CHEMICAL INDUSTRIES, LTD., priority 1984, dated 1985).
Converted amounts (≈) assume the structure as drawn.

Assays:
physchem = conditions: pH 7.2, aqueous buffer
[1] = Solubility in water around the neutral pH range; conditions: for solubility in water: pH 7.2 (around the neutral range); for solubility in water relative to BSPM: pH 7.2, multiple of the solubility of BSPM
[2] = tested on: H202-POD (peroxidase) system; experiment: Oxidation coloring in the H2O2-peroxidase system; conditions: statement in words
Text: The triphenyl methane derivatives according to the present invention in which two groups ―O(CH2)nSO3M (M and n are the same meanings as given above), are present, are unexpectedly different from the triphenyl methane derivative in which two sulfonic acid groups are directly bonded to the benzene nucleus, since they are excellent in oxidation coloring in the H202-POD system, and can be satisfactorily used for the purpose aimed at by the present invention.

[3] = known triphenyl methane type leuco coloring matters, statement in words; cited from earlier work

solubility in water [1]	solubility in water relative to BSPM [1]	SMILES	solubility in water in the neutral pH-range [3]	other results
		CCN(CC)c1ccc(C(c2ccc(N(CC)CC)cc2)c2ccccc2S(=O)(=O)O)cc1 [BSPM, bis(4-diethylaminophenyl)-2-sulfophenyl methane]		solubility (physchem): 500 µM (≈ 233 µg/mL)
≥ 15000 µM	not less than 30 times	CCN(CC)c1ccc(C(c2ccc(N(CC)CC)cc2)c2ccc(OCCCS(=O)(=O)O)c(OCCCS(=O)(=O)O)c2)cc1 [BSdiproPM, bis(4-N,N-diethylaminophenyl)-3,4-disodium sulfopropoxyphenyl methane]		
5000 µM	10 times	CCN(CC)c1ccc(C(c2ccc(OCCCS(=O)(=O)O)cc2)c2ccc(N(CC)CC)cc2)cc1 [BSproPM, bis(4-N,N-diethylaminophenyl)-4-sodium sulfopropoxyphenyl methane]		
		CCN(CC)c1ccc(C(c2ccc(N(CC)CC)cc2)c2ccc(S(=O)(=O)O)cc2S(=O)(=O)O)cc1 [bis(4-diethylaminopheny)-2,4-disulfophenyl methane]		oxidation coloring in the H202-POD system [2]: no coloring takes place
		CN(C)c1ccc(C(c2ccccc2)c2ccc(N(C)C)cc2)cc1 [leuco malachite green]	difficult to dissolve into water in the neutral pH-range	
		CN(C)c1ccc(C(c2ccc(N(C)C)cc2)c2ccc(N(C)C)cc2)cc1 [leucocrystal violet]	difficult to dissolve into water in the neutral pH-range	
